Test results reported in patent US20230263729A1, “POLY(ETHYLENE GLYCOL)-BLOCK-POLY(PROPYLENE SULFIDE) NANOCARRIER PLATFORM FOR ENHANCED EFFICACY OF IMMUNOSUPPRESSIVE AGENTS” (Northwestern University, priority 2019, published 2023).

Legend:
allogeneic islet graft = assay: Intraportal fully-MHC mismatched allogeneic islet transplantation; format: in vivo, C57BL/6J mice; conditions: standard dosage: 11 daily injections, 1 mg rapamycin per kg
Experimental: Allogeneic Islet Transplantation—Diabetes was induced via streptozotocin (IP; 190 mg/kg) injection five days prior to transplantation and confirmed via hyperglycemia (blood glucose>400 mg/dl). Starting the day prior to transplantation, mice were injected with PBS, PS, rapamycin, or rPS (N=3 per group) at 1 mg/kg (or equivalent) in accordance with a standard dosage (11 doses, given daily) or a low dosage (6 doses, given every 3rd day). On the day of transplantation, islets were isolated from Balb/c mice via common bile duct cannulation and pancreas distension with collagenase. Islets isolated from two donors (˜200 mouse islets, ˜175 IEQ) were transplanted to C57B6/J recipients via the portal vein. Body weight and blood glucose concentration were monitored closely for 100 days post-transplantation. Intraperitoneal glucose tolerance test (IPGTT) was performed one-month post transplantation. The animals were fasted for 16 hours before being injected intraperitoneally with 2 g dextrose (200 g/L; Gibco) per kg body weight. Blood glucose concentrations were measured at 0, 15, 30, 60- and 120-minutes post-injection.

[1] = test system: hair follicles at injection site; assay: Alopecia assessment (dorsal photos, H&E histology); format: in vivo, C57BL/6J mice
Source text: Alopecia Assessment—Dorsal photos were taken weekly to assess for alopecia. At 100-days post-transplantation, the mice were euthanized and skin samples were excised in the dorsal region at the subcutaneous injection site. Skin samples were placed in cassettes, fixed in 4% paraformaldehyde, and embedded in paraffin. Tissue blocks were sectioned at a thickness of […] and stained with hematoxylin and eosin (H&E). Digital images were taken on a Nikon microscope.

[2] = test system: genes associated with rapamycin side effects; assay: Single cell RNA sequencing of spleen macrophages and CD4+ regulatory T cells; format: in vivo, C57BL/6J mice; conditions: 1 mg/kg s.c. 11 days
Experimental: Single Cell RNA Sequencing—Healthy C57BL/6J mice were subjected to a “standard dosage regime.” Animals were injected subcutaneously for 11 days with rapamycin (in 0.2% CMC) or rPS at a dose of 1 mg/kg. Equivalent dose of 1×PBS or PS were injected as controls. After 11 days, the mice were sacrificed, and the liver and spleen were excised. The organs were processed as was done for flow cytometry. CD4+ regulatory T cells and macrophages were isolated using magnetic sorting (MojoSort; BioLegend). Briefly, cells were first incubated in a cocktail of PE anti-mouse CD169 and PE anti-mouse F4/80 antibodies (BioLegend). After washing, incubation in anti-PE nanobeads (BioLegend) occurred. Macrophages were magnetically sorted from non-macrophages. The non-macrophages cell fraction was then incubated in mouse CD4+ T cell isolation biotin-antibody cocktail (BioLegend) and sorted. The CD4+ T cell fraction was then incubated in APC anti-mouse CD25 antibody (BioLegend), followed by washing, incubation in anti-APC nanobeads (BioLegend) and sorting. RNA was isolated from separated macrophages and CD4+ regulatory T cells using R-Neasy Mini Kit with DNAse digestion (Qiagen), Samples were frozen and shipped to Admera Health where they underwent library preparation using the Lexogen 3′ mRNA-Seq Library Prep Kit FWD HT (Lexogen) and were sequenced on an Illumina sequencer (HiSeq 2500 2×150 bp). For each pair, Read 2 was discarded and only Read 1 was used for downstream data analysis. Sequencing quality was analyzed with FastQC v0.11.5^47 and reads were trimmed and filtered with Trimmomatic v0.3948. One sample from the spleen T cell PBS treatment group and one sample from the spleen T cell rapamycin treatment group were discarded due to low sequencing quality. Reads were aligned with STAR v2.6.0a 49 to the GRCm38.p6 mouse reference genome primary assembly using the GRCm38.p6 mouse reference primary comprehensive gene annotation (https://www.gencodegenes.org/mouse/). Quantification and differential expression was performed with Cuffdiff from Cufflinks v2.2.150-52 again using the GRCm38.p6 mouse reference primary comprehensive gene annotation and a 0.05 FDR. Detailed settings for each software are included in Table S1.

red blood cells = conditions: in vivo; cited from earlier work
[3] = in vivo; cited from earlier work

Which “mice remaining normoglycemic 100 days post transplantation” value (allogeneic islet graft) does the source give for `CO[C@H]1C[C@@H]2CC[C@@H](C)[C@@](O)(O2)C(=O)C(=O)N2CCCC[C@H]2C(=O)O[C@H]([C@H](C)C[C@@H]2CC[C@@H](O)[C@H](OC)C2)CC(=O)[C@H](C)/C=C(\C)[C@@H](O)[C@@H](OC)C(=O)[C@H](C)C[C@H](C)/C=C/C=C/C=C/1C` [rapamycin] here?
Its value is 71%.

And the “hair follicles, histological analysis” value ([1]; low dosage)?
Its value is “some mature follicles present”.

And the injection site alopecia ([1]; low dosage)?
The injection site alopecia was “alopecia was reduced”.

And the injection site alopecia ([1]; mice treated with free rapamycin)?
The injection site alopecia was “experienced injection site alopecia”.

And the “hair follicles, histological analysis” value ([1]; standard dosage)?
Its value is “Only immature follicles”.

And the “ACAA1 Fold Change” value ([2]; Spleen CD4+ Regulatory T Cells)?
The value was −3.833.

What about the “CD79A Fold Change” value ([2]; Spleen CD4+ Regulatory T Cells) of the same compound?
The value was −24.

And the “CRKL Fold Change” value ([2]; Spleen CD4+ Regulatory T Cells)?
The value was 7.387.

And the “MZB1 Fold Change” value ([2]; Spleen CD4+ Regulatory T Cells)?
Its value is −24.

What about the “PIK3R1 Fold Change” value ([2]; Spleen CD4+ Regulatory T Cells) of the same compound?
The value was −12.

And the “IGF1 Fold Change” value ([2]; Spleen Macrophages)?
Its value is −9.108.

What about the “MGAT1 Fold Change” value ([2]; Spleen Macrophages) of the same compound?
The value was 5.0747.

What about the “ZDHHC3 Fold Change” value ([2]; Spleen Macrophages) of the same compound?
The value was −8.143.

What about the “partition into red blood cells” value (red blood cells) of the same compound?
The value was 95%.

And the “patients impacted by alopecia” value [3]?
Its value is “approximately 10%”.
